Assays:
[1] = The drug is tested on Enterobacter cancerogenus strain: ATCC35316 for biotransformation. The drug concentrations were measured before and after a 12-h incubation by liquid-chromatography-coupled mass spectrometry (LC–MS); conditions: 2 µM
[2] = bacteroides thetaiotaomicron, 12 h, 2 µM
Description: The drug is tested on Bacteroides thetaiotaomicron strain: VPI-5482 for biotransformation. The drug concentrations were measured before and after a 12-h incubation by liquid-chromatography-coupled mass spectrometry (LC–MS)

[3] = limosilactobacillus reuteri cf48-3a, 12 h, 2 µM
Description: The drug is tested on Lactobacillus reuteri CF48-3A strain: BEI HM-102 for biotransformation. The drug concentrations were measured before and after a 12-h incubation by liquid-chromatography-coupled mass spectrometry (LC–MS)

[4] = The drug is tested on Enterococcus faecalis strain: V583 for biotransformation. The drug concentrations were measured before and after a 12-h incubation by liquid-chromatography-coupled mass spectrometry (LC–MS); conditions: 2 µM
[5] = roseburia intestinalis, 12 h, 2 µM
Description: The drug is tested on Roseburia intestinalis strain: L1-82 for biotransformation. The drug concentrations were measured before and after a 12-h incubation by liquid-chromatography-coupled mass spectrometry (LC–MS)

[6] = bifidobacterium adolescentis, 12 h, 2 µM
Description: The drug is tested on Bifidobacterium adolescentis strain: ATCC 15703 for biotransformation. The drug concentrations were measured before and after a 12-h incubation by liquid-chromatography-coupled mass spectrometry (LC–MS)

[7] = The drug is tested on Anaerotruncus colihominis strain: DSM17241 for biotransformation. The drug concentrations were measured before and after a 12-h incubation by liquid-chromatography-coupled mass spectrometry (LC–MS); conditions: 2 µM
[8] = anaerostipes sp., 12 h, 2 µM
Description: The drug is tested on Anaerostipes sp. strain: fecal isolate for biotransformation. The drug concentrations were measured before and after a 12-h incubation by liquid-chromatography-coupled mass spectrometry (LC–MS)

[9] = The drug is tested on Clostridium scindens strain: ATCC35704 for biotransformation. The drug concentrations were measured before and after a 12-h incubation by liquid-chromatography-coupled mass spectrometry (LC–MS); conditions: 2 µM
[10] = The drug is tested on Collinsella aerofaciens strain: ATCC25986 for biotransformation. The drug concentrations were measured before and after a 12-h incubation by liquid-chromatography-coupled mass spectrometry (LC–MS); conditions: 2 µM
[11] = The drug is tested on Bifidobacterium breve strain: DSM20213 for biotransformation. The drug concentrations were measured before and after a 12-h incubation by liquid-chromatography-coupled mass spectrometry (LC–MS); conditions: 2 µM
[12] = The drug is tested on Bacteroides fragilis strain: HMW610 for biotransformation. The drug concentrations were measured before and after a 12-h incubation by liquid-chromatography-coupled mass spectrometry (LC–MS); conditions: 2 µM
[13] = segatella copri, 12 h, 2 µM
Description: The drug is tested on Prevotella copri strain: DSM18205 for biotransformation. The drug concentrations were measured before and after a 12-h incubation by liquid-chromatography-coupled mass spectrometry (LC–MS)

[14] = bacteroides fragilis, 12 h, 2 µM
Description: The drug is tested on Bacteroides fragilis strain: 3397 (T10) for biotransformation. The drug concentrations were measured before and after a 12-h incubation by liquid-chromatography-coupled mass spectrometry (LC–MS)

[15] = The drug is tested on Edwardsiella tarda strain: ATCC23685 for biotransformation. The drug concentrations were measured before and after a 12-h incubation by liquid-chromatography-coupled mass spectrometry (LC–MS); conditions: 2 µM
[16] = bacteroides thetaiotaomicron, 12 h, 2 µM; remark: listed apart in the source
Description: The drug is tested on Bacteroides thetaiotaomicron strain: 7330 for biotransformation. The drug concentrations were measured before and after a 12-h incubation by liquid-chromatography-coupled mass spectrometry (LC–MS)

[17] = bacteroides fragilis, 12 h, 2 µM; remark: listed apart in the source
Description: The drug is tested on Bacteroides fragilis strain: NCTC 9343 for biotransformation. The drug concentrations were measured before and after a 12-h incubation by liquid-chromatography-coupled mass spectrometry (LC–MS)

[18] = The drug is tested on Clostridium sporogenes strain: ATCC15579 for biotransformation. The drug concentrations were measured before and after a 12-h incubation by liquid-chromatography-coupled mass spectrometry (LC–MS); conditions: 2 µM
[19] = The drug is tested on Alistipes indistinctus strain: DSM22520 for biotransformation. The drug concentrations were measured before and after a 12-h incubation by liquid-chromatography-coupled mass spectrometry (LC–MS); conditions: 2 µM

Structure (SMILES) | Bacterial Biotransformation [1] | Bacterial Biotransformation [2] | Bacterial Biotransformation [3] | Bacterial Biotransformation [4] | Bacterial Biotransformation [5] | Bacterial Biotransformation [6] | Bacterial Biotransformation [7] | Bacterial Biotransformation [8] | Bacterial Biotransformation [9] | Bacterial Biotransformation [10] | Bacterial Biotransformation [11] | Bacterial Biotransformation [12] | Bacterial Biotransformation [13] | Bacterial Biotransformation [14] | Bacterial Biotransformation [15] | Bacterial Biotransformation [16] | Bacterial Biotransformation [17] | Bacterial Biotransformation [18] | Bacterial Biotransformation [19]
Nc1nnc(-c2cccc(Cl)c2Cl)c(N)n1 [LAMOTRIGINE] | Compound NOT metabolized | Compound NOT metabolized | Compound NOT metabolized | Compound NOT metabolized | Compound NOT metabolized | Compound NOT metabolized | Compound NOT metabolized | Compound NOT metabolized | Compound NOT metabolized | Compound NOT metabolized | Compound NOT metabolized | Compound NOT metabolized | Compound NOT metabolized | Compound NOT metabolized | Compound NOT metabolized | – | – | – | –
O=C(Nc1ccccc1)OCC(CN1CCCCC1)OC(=O)Nc1ccccc1 (stereo not given) [DIPERODON] | – | Compound NOT metabolized | Compound NOT metabolized | Compound NOT metabolized | Compound NOT metabolized | Compound NOT metabolized | Compound NOT metabolized | Compound NOT metabolized | Compound NOT metabolized | Compound NOT metabolized | Compound NOT metabolized | Compound NOT metabolized | Compound NOT metabolized | Compound NOT metabolized | Compound NOT metabolized | Compound NOT metabolized | Compound NOT metabolized | Compound NOT metabolized | Compound NOT metabolized
OCCN(CCO)c1nc(N2CCCCC2)c2nc(N(CCO)CCO)nc(N3CCCCC3)c2n1 [DIPYRIDAMOLE] | – | Compound NOT metabolized | Compound NOT metabolized | Compound NOT metabolized | Compound NOT metabolized | Compound NOT metabolized | Compound NOT metabolized | Compound NOT metabolized | Compound NOT metabolized | Compound NOT metabolized | Compound NOT metabolized | – | Compound NOT metabolized | Compound NOT metabolized | Compound NOT metabolized | Compound NOT metabolized | Compound metabolized | Compound metabolized | Compound NOT metabolized
CN1CCc2c(c3ccccc3n2Cc2ccccc2)C1.CN1CCc2c(c3ccccc3n2Cc2ccccc2)C1.O=S(=O)(O)c1cccc2c(S(=O)(=O)O)cccc12 | – | Compound NOT metabolized | Compound NOT metabolized | Compound NOT metabolized | Compound NOT metabolized | Compound NOT metabolized | Compound NOT metabolized | Compound NOT metabolized | Compound NOT metabolized | Compound NOT metabolized | Compound NOT metabolized | Compound NOT metabolized | Compound NOT metabolized | Compound NOT metabolized | Compound NOT metabolized | Compound NOT metabolized | Compound NOT metabolized | Compound NOT metabolized | –
CN1CCC(OC(c2ccccc2)c2ccccc2)CC1 | – | Compound NOT metabolized | Compound NOT metabolized | Compound NOT metabolized | Compound NOT metabolized | Compound NOT metabolized | Compound NOT metabolized | Compound NOT metabolized | Compound NOT metabolized | Compound NOT metabolized | Compound NOT metabolized | – | Compound NOT metabolized | Compound NOT metabolized | Compound NOT metabolized | Compound NOT metabolized | Compound NOT metabolized | Compound NOT metabolized | Compound NOT metabolized
CNCC[C@H](Oc1cccc2ccccc12)c1cccs1 [DULOXETINE] | Compound metabolized | Compound NOT metabolized | Compound NOT metabolized | Compound NOT metabolized | Compound NOT metabolized | Compound NOT metabolized | Compound NOT metabolized | Compound NOT metabolized | Compound NOT metabolized | Compound metabolized | Compound NOT metabolized | – | Compound metabolized | – | – | – | Compound metabolized | – | –
CC1Cc2ccccc2N1NC(=O)c1ccc(Cl)c(S(N)(=O)=O)c1 (stereo not given) [INDAPAMIDE] | – | Compound NOT metabolized | – | Compound NOT metabolized | Compound NOT metabolized | Compound NOT metabolized | – | Compound NOT metabolized | Compound NOT metabolized | – | Compound NOT metabolized | – | Compound NOT metabolized | Compound NOT metabolized | Compound NOT metabolized | Compound NOT metabolized | Compound NOT metabolized | Compound NOT metabolized | Compound NOT metabolized
N#Cc1ccc2c(c1)N(CCCN1CCC(O)CC1)c1ccccc1S2 [PERICIAZINE] | – | – | – | Compound NOT metabolized | – | Compound NOT metabolized | Compound NOT metabolized | Compound NOT metabolized | Compound NOT metabolized | Compound NOT metabolized | Compound NOT metabolized | Compound metabolized | Compound NOT metabolized | Compound metabolized | Compound NOT metabolized | Compound metabolized | Compound NOT metabolized | Compound NOT metabolized | Compound metabolized
Cc1cc2c(s1)Nc1ccccc1N=C2N1CCN(C)CC1 [OLANZAPINE] | – | – | Compound NOT metabolized | Compound NOT metabolized | Compound NOT metabolized | Compound NOT metabolized | Compound NOT metabolized | Compound NOT metabolized | Compound NOT metabolized | Compound NOT metabolized | Compound NOT metabolized | Compound metabolized | Compound NOT metabolized | Compound metabolized | Compound NOT metabolized | Compound NOT metabolized | Compound NOT metabolized | Compound NOT metabolized | Compound NOT metabolized
CN1[C@@H]2CC[C@H]1C[C@@H](OC(=O)C(CO)c1ccccc1)C2 (stereo not given in full) [ATROPINE] | – | – | Compound NOT metabolized | – | Compound NOT metabolized | Compound NOT metabolized | Compound NOT metabolized | – | – | Compound NOT metabolized | Compound NOT metabolized | Compound NOT metabolized | Compound NOT metabolized | Compound NOT metabolized | – | Compound NOT metabolized | Compound NOT metabolized | – | Compound NOT metabolized

From ChEMBL document CHEMBL5303573, “Mapping human microbiome drug metabolism by gut bacteria and their genes” (Nature, 2019)
